Here are results for 5 molecules from patent US4774230A, “Glucuronic acid derivatives of opioid antagonists” (Ivax Laboratories, Inc., priority 1988, dated 1988).

Structures can show the parent of a compound that is named as a salt.

Data set [1] relates to intestinal transit. As to the kind of experiment: charcoal meal assay (gastrointestinal motility), alleviation of morphine-induced hypomotility. The class given is in vivo, mice. The settings on record: for effect on intestinal transit in the absence of morphine: no morphine, groups 4 and 6; for protection of the intestine against the depressant effect of morphine / percentage of intestine traveled compared with group 1 (no morphine): with morphine; for protection of the intestine against the depressant effect of morphine: groups 5 and 7; for percentage of intestine traveled compared with group 1 (no morphine): groups 5 and 7 vs group 1. The method, then: Summary of the Results of the Charcoal Meal Assay^a
(Gastrointestial Motility) in Mice Given Nalmefene HCl
and Nalmefene-β-D-Glucuronide
^b The first vehicle or drug listed under Treatment was given 30
minutes before the second vehicle or drug listed. The results were
determined 30 min later. All treatments are p.o. and given in a volume of
0.3 ml. Doses were 10 mg/kg for morphine, 15 mg/kg or 2.9 ×

A short description of data set [2]: absorption and distribution of ^14 C labelled nalmefene glucuronide after oral administration. The data set is classed as in vivo, rats. An excerpt: Therefore the glucuronide of an opioid antagonist provides a means of preventing narcotic-induced intestinal hypomotility without interfering with central nervous system effects of narcotics, such as analgesia.

Data set [3] relates to opioid-dependant animals (central nervous system). As to the kind of experiment: Rapid Quantitative In Vivo Assay for Narcotic Antagonist (skin tail temperature rise, CNS withdrawal sign). The settings on record: FIG. 2; injection of 1000 μg/kg. From the text:
The Rapid Quantitative In Vivo Assay for Narcotic Antagonist of Katovich et al. (Substance and Alcohol Actions/Misuse, vol 5: 87095, 1984) was used. This assay is based on the extreme sensitivity of opioid-dependant animals to narcotic antagonists. Injection of these animals with a narcotic antagonist produces severe central nervous system withdrawal signs. One of these signs is an abrupt rise in the skin temperature of the tail.

The subject of data set [4] is constipation. The settings on record: patients not exposed to an exogenous opioid; Kreek et al., Lancet 1983; cited from earlier work.
A short description of data set [5]: analysis of blood, urine and feces after oral nalmefene (free nalmefene versus nalmefene glucuronide). The data set is classed as in vivo, rats. The conditions noted are these: oral administration. From the text: Such a high degree of biotransformation is common for this type of drug.

For the molecule `C=C1CC[C@@]2(O)[C@H]3Cc4ccc(O[C@@H]5O[C@H](C(=O)O)[C@@H](O)[C@H](O)[C@H]5O)c5c4[C@@]2(CCN3CC2CC2)[C@H]1O5` [nalmefene glucuronide, nalmefene-3β-D-glucuronide], the “Percent Meal Traveled ± S.E.M.” value in data set [1] (Group 4: Saline + Nalmefene Glucuronide, 15 mg/kg or 2.9 × 10^-6 M/kg p.o., N = 8, no significant difference vs Saline + Saline) stood at 66 ± 3%. Further, the “Percent Meal Traveled ± S.E.M.” value in data set [1] (Group 5: Morphine (10 mg/kg p.o., 30 min before) + Nalmefene Glucuronide 15 mg/kg or 2.9 × 10^-6 M/kg p.o., N = 5, no difference vs Saline + Saline, p < 0.05 vs Morphine + Saline) was 58 ± 12%. Further, in data set [1], the “effect on intestinal transit in the absence of morphine” value is recorded as “neither nalmefene (group 6) nor nalmefene glucuronide (group 4) had any significant effect”, the “protection of the intestine against the depressant effect of morphine” value was “protected the intestine against the depressant effect of morphine” and the “percentage of intestine traveled compared with group 1 (no morphine)” value is reported as “not significantly less than in the group (group 1) where no morphine was present”. Further, the “effectiveness against morphine-induced intestinal hypomotility compared with nalmefene” value in data set [1] (vs nalmefene) was “as effective as nalmefene”. Besides, in data set [2] (2 hours after oral dosing), the “form of the drug in the cecum” value was “almost exclusively free nalmefene”, the “part of the dose present in the small intestine still as nalmefene glucuronide” value is on record as “about 85%”, the “part of the dose which had reached the cecum” value was 2-3% and the radioactivity in plasma entry was “No radioactivity could be detected in plasma”. For the same molecule, the “absorption following oral administration” value in data set [2] (^14 C label, oral doses as high as 40 mg/kg) is “not absorbed to any measurable extent”. For the same molecule, in data set [3], the “effect on skin tail temperature” value is reported as “no effect”.

With `C=C1CC[C@@]2(O)[C@H]3Cc4ccc(O)c5c4[C@@]2(CCN3CC2CC2)[C@H]1O5` [Nalmefene HCl], the “Percent Meal Traveled ± S.E.M.” value is reported as 63 ± 2% in data set [1] (Group 6: Saline + Nalmefene HCl, 2.9 × 10^-6 M/kg p.o., N = 8) and 66 ± 14% in data set [1] (Group 7: Morphine (10 mg/kg p.o., 30 min before) + Nalmefene HCl 2.9 × 10^-6 M/kg p.o., N = 5, no difference vs Saline + Saline, p < 0.05 vs Morphine + Saline).

Consider `CN1CC[C@]23c4c5ccc(O)c4O[C@H]2[C@@H](O)C=C[C@H]3[C@H]1C5` [Morphine], for which the “Percent Meal Traveled ± S.E.M.” value is on record as 28 ± 2% in data set [1] (Group 2: Saline + Morphine, morphine 10 mg/kg p.o. given 30 min after saline, N = 8, significantly different (p < 0.05) from Saline + Saline controls) and 31 ± 3% in data set [1] (Group 3: Morphine + Saline, morphine 10 mg/kg p.o. given 30 min before saline, N = 8, p < 0.05 vs Saline + Saline, no difference vs Saline + Morphine). Further, the “reduction of the percentage of the intestine traveled” value in data set [1] (morphine, groups 2 and 3) is reported as “reduced the percentage of the intestine traveled by more than half”.

As to `C=CCN1CC[C@]23c4c5ccc(O)c4O[C@H]2C(=O)CC[C@@]3(O)[C@H]1C5` [naloxone], in data set [4], the relief of constipation entry is on record as “relieves constipation”.

On to `C=C1CC[C@@]2(O)[C@H]3Cc4ccc(O)c5c4[C@@]2(CCN3CC2CC2)[C@H]1O5` [nalmefene, 6-methylene-6-desoxy-N-cyclopropylmethyl-14-hydroxydihydronormorphine], for which, in data set [5], the “biotransformation by "first-pass" metabolism” value is on record as “almost totally biotransformed”. Further, in data set [1], the “effect on intestinal transit in the absence of morphine” value is listed as “neither nalmefene (group 6) nor nalmefene glucuronide (group 4) had any significant effect”, the “protection of the intestine against the depressant effect of morphine” value is “protected the intestine against the depressant effect of morphine” and the “percentage of intestine traveled compared with group 1 (no morphine)” value is given as “not significantly less than in the group (group 1) where no morphine was present”.
